Source: PubChem BioAssay (NCI)
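Where inhibition never reached the appropriate level, the endpoint shown equals the highest concentration tested. Otherwise, values were interpolated linearly from a five-concentration, 48-hour dose response in 96-well plates. The concentration for full growth arrest is given as TGI.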

What was measured:
Experiment in all cases: NCI anticancer screen, dose series, 48 h
786-0 renal = tested on: 786-0 renal
A498 renal = tested on: A498 renal
A549 NSCLC = tested on: A549 NSCLC
ACHN renal = tested on: ACHN renal
CAKI-1 renal = tested on: CAKI-1 renal
CCRF-CEM leukemia = tested on: CCRF-CEM leukemia
DMS 114 small cell lung = tested on: DMS 114 small cell lung
DMS 273 small cell lung = tested on: DMS 273 small cell lung
EKVX NSCLC = tested on: EKVX NSCLC
HCC-2998 colon = tested on: HCC-2998 colon
HCT-116 colon = tested on: HCT-116 colon
HCT-15 colon = tested on: HCT-15 colon
HL-60(TB) leukemia = tested on: HL-60(TB) leukemia
HOP-62 NSCLC = tested on: HOP-62 NSCLC
HT29 colon = tested on: HT29 colon
IGROV1 ovarian = tested on: IGROV1 ovarian
K-562 leukemia = tested on: K-562 leukemia
KM20L2 colon = tested on: KM20L2 colon
LOX IMVI melanoma = tested on: LOX IMVI melanoma
LXFL 529 NSCLC = tested on: LXFL 529 NSCLC
M14 melanoma = tested on: M14 melanoma
MOLT-4 leukemia = tested on: MOLT-4 leukemia
NCI-H226 lung = tested on: NCI-H226 lung
NCI-H23 lung = tested on: NCI-H23 lung
NCI-H460 lung = tested on: NCI-H460 lung
NCI-H522 lung = tested on: NCI-H522 lung
OVCAR-3 ovarian = tested on: OVCAR-3 ovarian
OVCAR-4 ovarian = tested on: OVCAR-4 ovarian
OVCAR-5 ovarian = tested on: OVCAR-5 ovarian
OVCAR-8 ovarian = tested on: OVCAR-8 ovarian
RPMI-8226 leukemia = tested on: RPMI-8226 leukemia
RXF 393 renal = tested on: RXF 393 renal
SF-268 CNS = tested on: SF-268 CNS
SF-295 CNS = tested on: SF-295 CNS
SF-539 CNS = tested on: SF-539 CNS
SK-MEL-2 melanoma = tested on: SK-MEL-2 melanoma
SK-MEL-28 melanoma = tested on: SK-MEL-28 melanoma
SN12C renal = tested on: SN12C renal
SNB-19 CNS = tested on: SNB-19 CNS
SNB-78 CNS = tested on: SNB-78 CNS
SR leukemia = tested on: SR leukemia
SW-620 colon = tested on: SW-620 colon
TK-10 renal = tested on: TK-10 renal
U251 CNS = tested on: U251 CNS
UACC-257 melanoma = tested on: UACC-257 melanoma
UACC-62 melanoma = tested on: UACC-62 melanoma
UO-31 renal = tested on: UO-31 renal
COLO 205 colon = tested on: COLO 205 colon
KM12 colon = tested on: KM12 colon
M19-MEL melanoma = tested on: M19-MEL melanoma
MALME-3M melanoma = tested on: MALME-3M melanoma
SK-OV-3 ovarian = tested on: SK-OV-3 ovarian
BT-549 breast = tested on: BT-549 breast
DU-145 prostate = tested on: DU-145 prostate
HOP-92 NSCLC = tested on: HOP-92 NSCLC
HS 578T breast = tested on: HS 578T breast
MCF7 breast = tested on: MCF7 breast
MDA-MB-231 breast = tested on: MDA-MB-231 breast
MDA-MB-435 = tested on: MDA-MB-435
MDA-N = tested on: MDA-N
NCI/ADR-RES ovarian = tested on: NCI/ADR-RES ovarian
PC-3 prostate = tested on: PC-3 prostate
SK-MEL-5 melanoma = tested on: SK-MEL-5 melanoma
SNB-75 CNS = tested on: SNB-75 CNS
T-47D breast = tested on: T-47D breast

With `CC(SC(=S)Nc1cccc(F)c1)C(=O)O` (configuration not stated) the TGI (786-0 renal) was over 100 µM, the TGI (A498 renal) was 77 µM and the TGI (A549 NSCLC) was over 100 µM. For the same compound, the TGI (ACHN renal) was over 100 µM, the TGI (CAKI-1 renal) was over 100 µM and the TGI (CCRF-CEM leukemia) was 55.3 µM. The TGI (DMS 114 small cell lung) was 31.7 µM, the TGI (DMS 273 small cell lung) was 24.5 µM and the TGI (EKVX NSCLC) was over 100 µM. The TGI (HCC-2998 colon) was over 100 µM, the TGI (HCT-116 colon) was 37.6 µM and the TGI (HCT-15 colon) was 83.7 µM. For the same compound, the TGI (HL-60(TB) leukemia) was 29.4 µM, the TGI (HOP-62 NSCLC) was 59.6 µM and the TGI (HT29 colon) was over 100 µM. The TGI (IGROV1 ovarian) was 11 µM, the TGI (K-562 leukemia) was 38.9 µM and the TGI (KM20L2 colon) was 90.8 µM. For the same compound, the TGI (LOX IMVI melanoma) was 32.4 µM, the TGI (LXFL 529 NSCLC) was 69.1 µM and the TGI (M14 melanoma) was 35 µM. The TGI (MOLT-4 leukemia) was 46.5 µM, the TGI (NCI-H226 lung) was 44.3 µM and the TGI (NCI-H23 lung) was 52.3 µM. For the same compound, the TGI (NCI-H460 lung) was 68 µM, the TGI (NCI-H522 lung) was 34.9 µM and the TGI (OVCAR-3 ovarian) was over 100 µM. For the same compound, the TGI (OVCAR-4 ovarian) was over 100 µM, the TGI (OVCAR-5 ovarian) was over 100 µM and the TGI (OVCAR-8 ovarian) was 76 µM. It also gave a TGI (RPMI-8226 leukemia) of 34.3 µM, a TGI (RXF 393 renal) of 29.1 µM and a TGI (SF-268 CNS) of 32.6 µM. It also gave a TGI (SF-295 CNS) of 52.7 µM, a TGI (SF-539 CNS) of 38 µM and a TGI (SK-MEL-2 melanoma) of 46.5 µM. The TGI (SK-MEL-28 melanoma) was 32.1 µM, the TGI (SN12C renal) was over 100 µM and the TGI (SNB-19 CNS) was 99.6 µM. The TGI (SNB-78 CNS) was over 100 µM, the TGI (SR leukemia) was 30.8 µM and the TGI (SW-620 colon) was over 100 µM. For the same compound, the TGI (TK-10 renal) was over 100 µM, the TGI (U251 CNS) was 84.9 µM and the TGI (UACC-257 melanoma) was 33.5 µM. It also gave a TGI (UACC-62 melanoma) of 36.4 µM and a TGI (UO-31 renal) of 74.5 µM.
In the case of `CN(C)c1ccc(C=NC23CC4CC(CC(C4)C2)C3)cc1`, the TGI (786-0 renal) is reported as over 100 µM, the TGI (A498 renal) is reported as over 100 µM and the TGI (A549 NSCLC) is reported as over 100 µM. For the same compound, the TGI (ACHN renal) was over 100 µM, the TGI (CAKI-1 renal) was over 100 µM and the TGI (CCRF-CEM leukemia) was over 100 µM. The TGI (COLO 205 colon) was over 100 µM, the TGI (DMS 114 small cell lung) was over 100 µM and the TGI (DMS 273 small cell lung) was over 100 µM. For the same compound, the TGI (EKVX NSCLC) was over 100 µM, the TGI (HCC-2998 colon) was over 100 µM and the TGI (HCT-116 colon) was over 100 µM. It also gave a TGI (HCT-15 colon) of over 100 µM, a TGI (HL-60(TB) leukemia) of over 100 µM and a TGI (HOP-62 NSCLC) of over 100 µM. It also gave a TGI (HT29 colon) of over 100 µM, a TGI (IGROV1 ovarian) of over 100 µM and a TGI (K-562 leukemia) of over 100 µM. For the same compound, the TGI (KM12 colon) was over 100 µM, the TGI (KM20L2 colon) was over 100 µM and the TGI (LOX IMVI melanoma) was over 100 µM. The TGI (M14 melanoma) was over 100 µM, the TGI (M19-MEL melanoma) was over 100 µM and the TGI (MALME-3M melanoma) was over 100 µM. The TGI (MOLT-4 leukemia) was over 100 µM, the TGI (NCI-H226 lung) was over 100 µM and the TGI (NCI-H23 lung) was over 100 µM. For the same compound, the TGI (NCI-H460 lung) was over 100 µM, the TGI (NCI-H522 lung) was over 100 µM and the TGI (OVCAR-3 ovarian) was over 100 µM. The TGI (OVCAR-4 ovarian) was over 100 µM, the TGI (OVCAR-5 ovarian) was over 100 µM and the TGI (OVCAR-8 ovarian) was over 100 µM. For the same compound, the TGI (RPMI-8226 leukemia) was over 100 µM, the TGI (RXF 393 renal) was over 100 µM and the TGI (SF-268 CNS) was over 100 µM. For the same compound, the TGI (SF-295 CNS) was over 100 µM, the TGI (SF-539 CNS) was over 100 µM and the TGI (SK-MEL-2 melanoma) was over 100 µM. The TGI (SK-MEL-28 melanoma) was over 100 µM, the TGI (SK-OV-3 ovarian) was over 100 µM and the TGI (SN12C renal) was over 100 µM. For the same compound, the TGI (SNB-19 CNS) was over 100 µM, the TGI (SNB-78 CNS) was over 100 µM and the TGI (SR leukemia) was over 100 µM. It also gave a TGI (SW-620 colon) of over 100 µM, a TGI (TK-10 renal) of over 100 µM and a TGI (U251 CNS) of over 100 µM. It also gave a TGI (UACC-257 melanoma) of over 100 µM, a TGI (UACC-62 melanoma) of over 100 µM and a TGI (UO-31 renal) of over 100 µM.
`Cn1c([N+](=O)[O-])cnc1CN1CCN(CCO)CC1` gave a TGI (786-0 renal) of over 100 µM, a TGI (A498 renal) of over 100 µM and a TGI (A549 NSCLC) of over 100 µM. For the same compound, the TGI (ACHN renal) was over 100 µM, the TGI (BT-549 breast) was over 100 µM and the TGI (CAKI-1 renal) was over 100 µM. For the same compound, the TGI (CCRF-CEM leukemia) was over 100 µM, the TGI (COLO 205 colon) was over 100 µM and the TGI (DU-145 prostate) was over 100 µM. It also gave a TGI (EKVX NSCLC) of over 100 µM, a TGI (HCC-2998 colon) of over 100 µM and a TGI (HCT-116 colon) of over 100 µM. The TGI (HCT-15 colon) was over 100 µM, the TGI (HL-60(TB) leukemia) was over 100 µM and the TGI (HOP-62 NSCLC) was over 100 µM. For the same compound, the TGI (HOP-92 NSCLC) was over 100 µM, the TGI (HS 578T breast) was over 100 µM and the TGI (HT29 colon) was over 100 µM. The TGI (IGROV1 ovarian) was over 100 µM, the TGI (K-562 leukemia) was over 100 µM and the TGI (KM12 colon) was over 100 µM. It also gave a TGI (LOX IMVI melanoma) of over 100 µM, a TGI (M14 melanoma) of over 100 µM and a TGI (MALME-3M melanoma) of over 100 µM. The TGI (MCF7 breast) was over 100 µM, the TGI (MDA-MB-231 breast) was over 100 µM and the TGI (MDA-MB-435) was over 100 µM. It also gave a TGI (MDA-N) of over 100 µM, a TGI (MOLT-4 leukemia) of over 100 µM and a TGI (NCI-H226 lung) of over 100 µM. It also gave a TGI (NCI-H23 lung) of over 100 µM, a TGI (NCI-H460 lung) of over 100 µM and a TGI (NCI-H522 lung) of over 100 µM. It also gave a TGI (NCI/ADR-RES ovarian) of over 100 µM, a TGI (OVCAR-3 ovarian) of over 100 µM and a TGI (OVCAR-4 ovarian) of over 100 µM. The TGI (OVCAR-5 ovarian) was over 100 µM, the TGI (OVCAR-8 ovarian) was over 100 µM and the TGI (PC-3 prostate) was over 100 µM. The TGI (RPMI-8226 leukemia) was over 100 µM, the TGI (RXF 393 renal) was over 100 µM and the TGI (SF-268 CNS) was over 100 µM. The TGI (SF-295 CNS) was over 100 µM, the TGI (SF-539 CNS) was over 100 µM and the TGI (SK-MEL-2 melanoma) was over 100 µM. It also gave a TGI (SK-MEL-28 melanoma) of over 100 µM, a TGI (SK-MEL-5 melanoma) of over 100 µM and a TGI (SK-OV-3 ovarian) of over 100 µM. For the same compound, the TGI (SN12C renal) was over 100 µM, the TGI (SNB-19 CNS) was over 100 µM and the TGI (SNB-75 CNS) was over 100 µM. It also gave a TGI (SR leukemia) of over 100 µM, a TGI (SW-620 colon) of over 100 µM and a TGI (T-47D breast) of over 100 µM. The TGI (TK-10 renal) was over 100 µM, the TGI (U251 CNS) was over 100 µM and the TGI (UACC-257 melanoma) was over 100 µM. For the same compound, the TGI (UACC-62 melanoma) was over 100 µM and the TGI (UO-31 renal) was over 100 µM.
